Three compounds from patent publication US20170335304A1, “OXIDIZED PROTEIN HYDROLASE ACTIVITY ENHANCING AGENT AND GLYCATION STRESS INHIBITOR” (ARKRAY, Inc., priority 2016, published 2017) can be followed below.

Common to all, as to format: biochemical
Test [1] addresses AGEs modified bovine serum albumin (AGE-BSA) cross-linked to collagen (Bos taurus, UniProt P02769). Kind of test: AGEs Cross-Link Breaking Effect Confirmatory Test (Test 2). The following applies: cross-link breaking reaction at 37° C. for 18 hours; punicalagin 5 mmol/L. The method, then:
The test was carried out according to the description in Sara Vasan et al. (Nature, 382, pp275-278 (1996)).
300 μL/well of SuperBlock T20 (PBS) Blocking Buffer was added to a commercially available 96-well microplate precoated with collagen, which then was reacted at 37° C. for one hour. After the reaction, it was washed with 0.05% polyethylene (20) sorbitan monolaurate (Tween 20)/PBS(-), and then AGEs modified bovine serum albumin (AGE-BSA) was added to each well of the microplate, which then was subjected to a crosslinking reaction at 37° C. for four hours. After the reaction, it was washed with Tween 20/PBS(-). Thereafter, a plant extract was added to each well and thereby it was subjected to a cross-link breaking (cleaving) reaction at 37° C. for 18 hours. After that, it was washed with Tween 20/PBS(-) and a primary antibody (anti-albumin bovine serum rabbit-polyclonal) was added thereto, which then was reacted at room temperature for 30 minutes. […] As a reaction stop solution, 1N HCl was added thereto, and the absorbance at 450 nm (dominant wavelength)/630 nm (complementary wavelength) was measured with a microplate reader. The amount of AGE-BSA that remained was determined from a calibration curve in which the amount of AGE-BSA was varied. Furthermore, the AGE-BSA decomposition rate (Collagen cross-link decomposition rate)was determined using the following formula. […]

The target of test [2] is T1, Acylamino-acid releasing enzyme (AARE) (OPH) (Sus scrofa, UniProt P19205).
T1 construct: purchased Takara Bio Inc
T1 sequence (P19205 1-732): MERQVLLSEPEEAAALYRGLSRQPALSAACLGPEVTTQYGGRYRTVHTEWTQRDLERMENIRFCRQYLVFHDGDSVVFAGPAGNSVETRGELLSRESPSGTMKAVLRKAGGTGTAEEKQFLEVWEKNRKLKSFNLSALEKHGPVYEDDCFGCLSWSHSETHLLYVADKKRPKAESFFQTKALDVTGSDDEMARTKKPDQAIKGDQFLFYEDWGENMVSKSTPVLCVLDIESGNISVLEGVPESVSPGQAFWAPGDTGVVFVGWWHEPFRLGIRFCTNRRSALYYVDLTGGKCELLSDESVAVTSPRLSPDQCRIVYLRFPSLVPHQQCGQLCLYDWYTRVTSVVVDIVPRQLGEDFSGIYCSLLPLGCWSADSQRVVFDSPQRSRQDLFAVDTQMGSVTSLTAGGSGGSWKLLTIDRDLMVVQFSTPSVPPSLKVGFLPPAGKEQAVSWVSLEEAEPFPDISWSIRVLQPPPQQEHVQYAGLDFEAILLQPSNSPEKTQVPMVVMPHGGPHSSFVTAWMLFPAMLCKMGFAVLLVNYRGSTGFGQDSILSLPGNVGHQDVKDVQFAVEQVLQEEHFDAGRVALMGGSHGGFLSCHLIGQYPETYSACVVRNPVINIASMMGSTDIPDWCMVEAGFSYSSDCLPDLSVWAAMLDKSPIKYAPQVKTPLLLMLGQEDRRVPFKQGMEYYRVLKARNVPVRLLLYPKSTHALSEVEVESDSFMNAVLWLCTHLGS
The experiment in a line: OPH Activation Confirmatory Test (Test 2). The settings on record: sample solution 5 mg/ml; 24 hours at 37° C.; relative to Ref without sample; n=3. The method, then:
To each plant indicated in Table 3 below, 15 times its amount of water was added and it was extracted at 100° C. for 30 minutes and then was solid-liquid separated and condensed. Thereafter, it was sterilized at 100° C. or higher for 30 minutes or less, which then was spray-dried. Thus, plant extract powders were obtained.
Each plant extract powder mentioned above was diluted with distilled water so as to be 5 mg/ml, which then was used as a sample solution. […]
The OPH Solution, the AAPA solution, and the sample solution (5 mg/mi) were mixed together to be added to each well of a 96-well microplate and then were reacted for 24 hours in an incubator set at 37° C. The absorbance at 405 nm of each reaction solution was measured with a microplate reader.
The enzyme activity of the OPH was determined as variation in absorbance (reaction rate) per hour (the OPH reaction rate of the sample). On the other hand, as a reference (Ref), the same measurement was carried out without adding the sample solution and then the reaction rate was determined (the OPH reaction rate of Ref). Using the OPH reaction rate of the sample and the OPH reaction rate of Ref, the OPH activation rate (%) was calculated from the following formula (n=3). […]

The nature of test [3]: AGEs Cross-link Breaking Effect Confirmatory Test (Test 1). The settings on record: 10 mmol/L PPD, pH 7.4, 37° C., eight hours; n=3; PTB 10 mmol/L. The procedure: The test was carried out according to the description in […] al. (Nature, 382, pp275-278 (1996)). […] A plant extract, 10 mmol/L of PPD, and 0.2 mol/L of phosphate buffer solution (pH 7.4) were mixed together at a ratio of 5:1:4 and then were reacted at 37° C. for eight hours (n=3). After completion of the reaction, hydrochloric acid was added thereto to stop the reaction and thus a reaction solution was obtained. […] The amount of benzoic acid contained in the reaction solution was determined by subtracting the amount of benzoic acid contained in the plant extract, which was measured separately. Since 1 mol of PPD produces 1 mol of benzoic acid, the cross-link breaking rate was calculated by the following formula. Cross-link breaking rate (%)={(A-B)/C}×100 • A: The amount of benzoic acid contained in the reaction solution • B: The amount of benzoic acid contained in the plant extract • C: The amount of PPD provided for the reaction (the amount of the substrate) As a control, a test was carried out using 10 mmol/L of PTB instead of the plant extract.

The nature of test [4]: AGEs Cross-Link Breaking Effect Confirmatory Test (Test 3). The following applies: same measurement as Test 1, mixture solid content 7.42 mg/mL. The procedure: A plant extract, 10 mmol/L of PPD, and 0.2 mol/L of phosphate buffer solution (pH 7.4) were mixed together at a ratio of 5:1:4 and then were reacted at 37° C. for eight hours (n=3). After completion of the reaction, hydrochloric acid was added thereto to stop the reaction and thus a reaction solution was obtained. […] The amount of benzoic acid contained in the reaction solution was determined by subtracting the amount of benzoic acid contained in the plant extract, which was measured separately. Since 1 mol of PPD produces 1 mol of benzoic acid, the cross-link breaking rate was calculated by the following formula. Cross-link breaking rate (%)={(A−B)/C}×100 • A: The amount of benzoic acid contained in the reaction solution • B: The amount of benzoic acid contained in the plant extract • C: The amount of PPD provided for the reaction (the amount of the substrate) As a control, a test was carried out using 10 mmol/L of PTB instead of the plant extract. The same measurement as in the AGEs cross-link breaking effect confirmatory test (Test 1) was carried out except for using a mixture of plant extracts indicated in Table 6 below.

Chain of AGEs modified bovine serum albumin (AGE-BSA) cross-linked to collagen (P02769 25-607): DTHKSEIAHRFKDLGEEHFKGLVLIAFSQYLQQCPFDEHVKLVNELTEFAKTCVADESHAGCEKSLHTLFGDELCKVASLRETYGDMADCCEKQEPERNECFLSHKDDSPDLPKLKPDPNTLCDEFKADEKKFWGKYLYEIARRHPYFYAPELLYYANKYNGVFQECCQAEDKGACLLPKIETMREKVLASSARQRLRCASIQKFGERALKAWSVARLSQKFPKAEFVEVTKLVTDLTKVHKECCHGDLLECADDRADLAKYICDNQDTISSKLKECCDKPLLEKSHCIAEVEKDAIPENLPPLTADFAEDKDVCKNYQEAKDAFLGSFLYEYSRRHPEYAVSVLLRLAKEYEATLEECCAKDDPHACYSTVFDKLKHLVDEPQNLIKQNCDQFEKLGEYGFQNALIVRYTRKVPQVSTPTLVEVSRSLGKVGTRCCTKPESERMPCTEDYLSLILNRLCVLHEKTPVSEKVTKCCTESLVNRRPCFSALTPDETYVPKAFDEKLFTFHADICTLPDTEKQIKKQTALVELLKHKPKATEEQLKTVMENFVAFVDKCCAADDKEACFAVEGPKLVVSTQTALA

With `O=C1O[C@H]2[C@@H]3OC(=O)c4cc(O)c(O)c(O)c4-c4c(O)c(O)c5oc(=O)c6c(c(O)c(O)c7oc(=O)c4c5c76)-c4c(cc(O)c(O)c4O)C(=O)OC[C@H]3OC(O)[C@@H]2OC(=O)c2cc(O)c(O)c(O)c2-c2c1cc(O)c(O)c2O` (mixture of isomers) [Punicalagin], in test [1], the “Amount of Remaining AGE-BSA” value was 343.3 ng and the “Collagen Cross-Link Decomposition Rate (%)” value amounted to 65.7%. In the case of `O=C(O[C@@H]1Cc2c(O)cc(O)cc2O[C@@H]1c1cc(O)c(O)c(O)c1)c1cc(O)c(O)c(O)c1` [EGCg, Epigallocatechin gallate], the “OPH Activation Rate (%) (Mean Value ± Standard Deviation)” value in test [2] was found to be 15.5 ± 3.2%.

Regarding `O=C(C[n+]1ccsc1)c1ccccc1.[Br-]` [PTB, N-phenacylthiazolium bromide], the results for the “Cross-Link Breaking Rate (%) (Mean Value ± Standard Deviation)” value in test [3] and in test [4] were 20.47 ± 0.29% and 25.34 ± 0.19%, respectively.
